Experimental data from patent US8940697B2, “Compositions and methods for the treatment of myocardial ischemia/reperfusion injury with Annexin A1 short peptide” (Duke University, priority 2009, dated 2015).
“Also recorded” adds a separate entry of the source. Marks after values point to notes of the source that are not given here. No end group written: not given here.

Experiments:
[1] = test system: NF-kB activation in human pancreatic cancer cell lines; experiment: NF-kB activation in human pancreatic cancer cell lines by ANXA1 N-terminus short peptides; assay type: cell-based; settings: compared with the other ANXA1 peptides of FIG. 1
Description: FIG. 1 is a graph showing the effect of ANXA1 N-terminus short peptides Ac-QAW, Ac-KQAW (SEQ ID NO:3), Ac-[…] (SEQ ID NO:10), Ac-FLK, Ac-EFLKQAW (SEQ ID NO:6) and Ac-VSEFLKQAW (SEQ ID NO:9) on NF-kB activation in human pancreatic cancer cell lines. Values presented are means±SD; n=5; *P<0.05 and #P<0.001 vs. control (0). Ac=acetylation.

[2] = test system: adult rat ventricular cardiomyocytes (ARVC); experiment: ARVC simulated I/R (oxygen-glucose deprivation/reoxygenation); assay type: cell-based; settings: for cTnI: 30 μM ANXA1sp, 2 h OGD + 24 h reoxygenation, supernatant; for HFABP / TNFα / Apoptosis / Cell Death: 30 μM, OGD/reoxygenation; for Apoptosis: ELISA; for Cell Death: trypan blue
Description: FIG. 4A. Cells were exposed to normal glucose (NG) (a, e), high glucose (HG) (b, f), HG+ANXA1sp (c, g) and HG+Ac2-26 (d, h), respectively, for 24 hours. Cells (e, f, g, h) were washed with deoxygenated glucose-free DMEM medium in an anaerobic chamber that contained a gas mixture of 5% CO2, 10% H2, and 85% N2 and incubated for 2 hours. After oxygen/glucose deprivation (OGD), ARVC cells were cultured in DMEM medium under normoxic conditions in a 5% CO2 incubator for 24 hours. Cells (a, b, c, d) without OGD were used as a control. Cell death was determined by trypan blue staining. FIG. 4B is a graph of the results obtained in FIG. 4A. Specifically, cells were counted in a total of eight random fields in triplicate wells. Values presented are means±SD; n=8.
(§1) Cardiomyocytes isolated from adult rat in both normal and hyperglycemic culture media were exposed directly to ANXA1sp. […] The cardioprotective effects of ANXA1sp was further examined in hyperglycemic exacerbation of myocardial injury due to simulated ischemia/reperfusion in vitro. Adult rat ventricular cardiomyocytes (ARVCs) were treated with/without either ANXA1sp or Ac2-26 in both normo- and hyperglycemic culture media for 24 hours. Cells were washed with deoxygenated glucose-free DMEM medium in an anaerobic chamber that filtrated a gas mixture of 5% CO2-10% H2-85% N2 and incubated for 2 hours. After oxygen/glucose deprivation (OGD), cells were cultured under normoxic conditions in a 5% CO2 incubator for 24 hours. Cells without OGD were used as a positive control. Cell death was determined by trypan blue exclusive staining. Cells were counted in triplicate wells and in eight random fields in each well.
In vitro study: ARVCs from male Sprague-Dawley (SD) rats were incubated in normal or high glucose (25 mM), with and without 30 μM ANXA1sp (Ac-QAW), or with a scrambled peptide (Ac-QWA), respectively for 24 h. Cells were subjected to 2 h oxygen-glucose deprivation (OGD), followed by 24 h reoxygenation in either normo- or hyperglycemic conditions. Cell death was determined histologically (trypan blue exclusion) and biochemically (supernatant levels of cTnI and HFABP, ELISA). Apoptosis was quantified using ELISA (Roche).

[3] = test system: male SD rats; experiment: Rat CPB/CA model of myocardial I/R injury (normo- and hyperglycemic); assay type: in vivo; settings: for NF-κB activity / IL-6 / TNF-α / Caspase-3 / MPO / Apoptosis / HFABP / cTnI: 3 mg/kg total; for NF-κB activity: myocardial DNA binding activity; for NF-κB activity / IL-6 / TNF-α / Caspase-3 / MPO / Apoptosis / HFABP: 24 h; for IL-6 / TNF-α: myocardial tissue; for Caspase-3 / MPO / Apoptosis: myocardium; for Apoptosis: TUNEL; for HFABP / cTnI: plasma; for cTnI: 24 h post-reperfusion
Description: Next, studies were carried out to determine the effectiveness of ANXA1sp on myocardial protection in vivo using a clinically-relevant rodent experimental model of surgical global myocardial ischemia/reperfusion injury. […] Rats were exposed to CPB for 15 minutes before ischemic/reperfusion injury was initiated (i.e., cardioplegic arrest was induced) and maintained for 45 minutes, followed by another 15 minutes of CPB. Animals were weaned from cardiopulmonary bypass and allowed to recover for 24 hours, at which point blood and left ventricular myocardial tissue were harvested for analysis. FIG. 5B is a graph showing the blood glucose levels in rats before and after ischemia. Acute hyperglycemia was induced using dextrose 25% (5 gm/kg) administered preoperatively 0.75 gm intraperitoneally, intraoperatively 0.25 gm in CPB prime and 0.5 gm/hr intravenously, and postoperatively 1 hour after weaning from CPB (intraperitoneally). Perioperative blood glucose levels were maintained at >300 mg/dl. Cardioplegic arrest was induced with cold (4:1) blood cardioplegia. Animals in the AXNA1sp treated group received a total of 3 mg/kg ANXA1sp in 3 equal doses administered before (intraperitoneally), during (intracoronary, mixed with cardioplegia solution), and after CPB (intraperitoneally), respectively. Control animals underwent an identical surgical procedure with vehicle instead of ANXA1sp.
In vivo study: with IACUC approval, male SD rats were randomly assigned to 4 groups in a 2×2 design (n=5/group): normo- and hyperglycemic (20 mM) cardioplegic arrest (CA), each treated with ANXA1sp or vehicle, respectively. All animals underwent 75 min of mild hypothermic CPB (33° C.) with 45 min of CA using blood cardioplegia. Treatment groups received ANXA1sp (Ac-QAW, GenScript, 3 mg/kg total) before (ip), during (with cardioplegia), and after CPB (ip) in equal doses, whereas CA control animals received saline. No animals received insulin. At 24 h post-reperfusion the following efficacy end-points were assessed by investigators blinded to the experimental group: 1) plasma myonecrosis biomarkers—cTnI and HFABP (rat specific ELISA, LifeDiagnostics); 2) myocardial apoptosis—cleaved caspase-3 (immunostaining and Western blot) and TUNEL assays; 3) myocardial inflammation—NF-kB DNA binding activity (ELISA, Panomics) and tissue levels of TNF-α and IL-6 (ELISA, ThermoScientific); and 4) myocardial neutrophil transmigration—myeloperoxidase (MPO) activity (ELISA, ThermoScientific).

[4] = test system: Male Yorkshire pigs; experiment: Pig CPB/CA model of myocardial I/R injury; assay type: in vivo
Description: Pig CPB/CA: Male Yorkshire pigs (32-38 kg) were subjected to 120 min of mild hypothermic CPB, including 60 min of CA using 4:1 blood cardioplegia, and received either ANXA1sp (iv after anesthesia induction and with each dose of cardioplegia, 4 mg/kg total, CA_SP group, n=4) or vehicle (CA_CTRL, n=8). Efficacy endpoints and underlying mechanisms were assessed as described herein.

[5] = test system: NIH 3T3 cells; experiment: LPS-induced NIH 3T3 cells: NF-κB activity, IL-6, cell death; assay type: cell-based; settings: LPS+peptide vs LPS, 0, 1, 3 and 6 hours
Description: FIG. 2A is a graph showing the effect of ANXA1sp on NF-κB activity over time on NIH 3T3 cells activated with LPS alone and LPS+peptide. FIG. 2B is a graph showing the effect of ANXA1sp on interleukin-6 (IL-6) production over time by NIH 3T3 cells activated with LPS alone and LPS+peptide.
The ANXA1sp was next tested in LPS-induced NIH 3T3 cells to determine if NF-κB activity was inhibited. NIH 3T3 cells were exposed to LPS or LPS+ANXA1sp (LPS+Peptide) for 0, 1, 3 and 6 hours. Cell lysates were obtained and levels of NF-κB activity and IL-6 were measured by ELISA. Cell death was also measured by Trypan blue exclusion.

[6] = test system: adult rat ventricular cardiomyocytes (ARVC); experiment: Long-term culture survival of adult rat cardiomyocytes in normal or high glucose; assay type: cell-based; settings: for cardiomyocytes still alive, with rod-shaped morphology: day 26
Description: Cardiomyocytes isolated from adult rats were exposed to ANXAsp (FIG. 3C and FIG. 3D) or the N-terminal 25mer Ac2-26 (FIG. 3E and FIG. 3F) in either normal glucose (NG) or high glucose (HG), respectively, for 26 days, Untreated control cells in normoglycemic and hyperglycemic media are presented in FIG. 3A and FIG. 3B,
as §1

[7] = 4 mg/kg, systemically and in the cardioplegia solution

Ac-Gln-Ala-Trp [ANXA1sp]
inhibiting NF-κB activity [1]: most effective at inhibiting NF-κB activity
cardiomyocyte cell death (trypan blue) ([2]; 24 h pretreatment, 2 h OGD, 24 h normoxia, Example 3): significantly decreased cardiomyocyte cell death
cTnI ([2]; HG_SP: high glucose (25 mM)): 7.8 ± 0.6 ng/mL
HFABP ([2]; HG_SP: high glucose (25 mM)): 2.0 ± 0.4 ng/mL
TNFα ([2]; HG_SP: high glucose (25 mM)): 1.2 ± 0.1 ng/mg protein
Apoptosis ([2]; HG_SP: high glucose (25 mM)): 0.7 ± 0.2 A.U.
Cell Death ([2]; HG_SP: high glucose (25 mM)): 40.5 ± 11.1 %
cTnI ([2]; NG_SP: normal glucose): 5.7 ± 0.4 ng/mL
HFABP ([2]; NG_SP: normal glucose): 2.4 ± 1.4 ng/mL
TNFα ([2]; NG_SP: normal glucose): 0.84 ± 0.1 ng/mg protein
Apoptosis ([2]; NG_SP: normal glucose): 0.7 ± 0.2 A.U.
Cell Death ([2]; NG_SP: normal glucose): 38.6 ± 5.9 %
cardioprotective efficacy compared with Ac2-26 ([2]; OGD, high glucose, Example 3, FIG. 4): stronger cardioprotective efficacy than Ac2-26
NF-κB activity ([3]; CAHG_SP: hyperglycemic): 1.5 ± 0.5 A.U.
IL-6 ([3]; CAHG_SP: hyperglycemic): 107.3 ± 15.5 ng/mg
TNF-α ([3]; CAHG_SP: hyperglycemic): 105.6 ± 13.3 ng/mg
Caspase-3 ([3]; CAHG_SP: hyperglycemic): 5.9 ± 1.4 A.U.
MPO ([3]; CAHG_SP: hyperglycemic): 467.2 ± 72.4 ng/mg
Apoptosis ([3]; CAHG_SP: hyperglycemic): 9.5 ± 1.2 %
HFABP ([3]; CAHG_SP: hyperglycemic): 12.4 ± 2.6 ng/mL
cTnI ([3]; CAHG_SP: hyperglycemic): 2.1 ± 0.5 ng/mL
NF-κB activity ([3]; CA_SP: normoglycemic): 0.8 ± 0.04 A.U.
IL-6 ([3]; CA_SP: normoglycemic): 38.2 ± 8.1 ng/mg
TNF-α ([3]; CA_SP: normoglycemic): 28.8 ± 6.7 ng/mg
Caspase-3 ([3]; CA_SP: normoglycemic): 1.9 ± 1.5 A.U.
MPO ([3]; CA_SP: normoglycemic): 104.8 ± 6.6 ng/mg
Apoptosis ([3]; CA_SP: normoglycemic): 2.4 ± 1.1 %
HFABP ([3]; CA_SP: normoglycemic): 1.0 ± 0.3 ng/mL
cTnI ([3]; CA_SP: normoglycemic): 1.0 ± 0.7 ng/mL
myocardial apoptosis (TUNEL) ([3]; Example 4: acute hyperglycemia, 3 mg/kg, FIG. 7B, 3 mg/kg): attenuated; also recorded: significantly decreased
myocardial MPO ([3]; Example 4: acute hyperglycemia, 3 mg/kg, FIG. 8, 3 mg/kg): attenuated; also recorded: significantly decreased
myocardial NF-κB DNA binding activity ([3]; Example 4: acute hyperglycemia, 3 mg/kg, FIG. 9, 3 mg/kg): attenuated; also recorded: significantly decreased
myocardial TNF-α ([3]; Example 4: acute hyperglycemia, 3 mg/kg, FIG. 10A, 3 mg/kg): attenuated; also recorded: significantly decreased
myocardial IL-6 ([3]; Example 4: acute hyperglycemia, 3 mg/kg, FIG. 10B, 3 mg/kg): attenuated; also recorded: significantly decreased
myocardial caspase-3 activity ([3]; Example 4: acute hyperglycemia, 3 mg/kg, Western blot, FIG. 7A, 3 mg/kg): attenuated; also recorded: significantly decreased
myonecrosis biomarker HFABP ([3]; Example 4: acute hyperglycemia, 3 mg/kg, vs CAHG, FIG. 6B, 3 mg/kg): attenuated; also recorded: significantly decreased
hyperglycemic exacerbation of perioperative myocardial injury ([3]; Example 4: cardioplegic arrest and acute hyperglycemia, 3 mg/kg): attenuated
myonecrosis biomarker cTnI ([3]; Example 4: cardioplegic arrest and acute hyperglycemia, 3 mg/kg, vs CAHG, FIG. 6A, 3 mg/kg): attenuated; also recorded: significantly decreased
in vivo interaction between ANXA1 and NF-κB p65 subunit ([3]; co-immunoprecipitation and confocal co-localization in cardiomyocytes, FIG. 11): significantly induces; also recorded: strongly induced
hemodynamics ([4]; 4 mg/kg total): improved hemodynamics
animals requiring inotropic or vasopressor support ([4]; 4 mg/kg total, support substantial in all control animals): none requiring either inotropic or vasopressor support
left ventricular dysfunction [4, 7]: significant reduction
postoperative arrhythmias [4, 7]: significant reduction
vasoplegia [4, 7]: significant reduction
Apoptosis ([4]; CA_SP: 4 mg/kg total): 5.9 ± 2.3 %
Epinephrine (inotropic support required) ([4]; CA_SP: 4 mg/kg total): 0** mcg/6 hs
Heart Rate ([4]; CA_SP: 4 mg/kg total): 135 ± 18 beats/min
NF-κB activity ([4]; CA_SP: 4 mg/kg total): 0.8 ± 0.04 A.U.
SVI (stroke volume index) ([4]; CA_SP: 4 mg/kg total): 36 ± 5 ml/m^2
TNF-α ([4]; CA_SP: 4 mg/kg total): 28.8 ± 6.7 ng/mg protein
Vasopressin (vasopressor support required) ([4]; CA_SP: 4 mg/kg total): 0** U/6 hrs
Caspase-3 ([4]; CA_SP: 4 mg/kg total, iv and with cardioplegia): 137.3 ± 9.8 A.U.
apoptosis (cell death, Trypan blue exclusion) [5]: inhibited
IL-6 ([5]; ELISA): inhibited
NF-κB activity ([5]; ELISA of cell lysates): inhibited
protection of cardiomyocytes from cell death ([6]; both normo- and hyperglycemic conditions): significantly protected cardiomyocytes from cell death
cardiomyocytes still alive, with rod-shaped morphology ([6]; high glucose): ~50%
cardioprotective effect compared with Ac2-26 ([6]; long-term culture, normal and high glucose): much stronger than that of the commercial annexin A1 N-terminal peptide, Ac2-26
cardiomyocytes still alive, with rod-shaped morphology ([6]; normal glucose): about 70%

Ac-Ala-Met-Val-Ser-Glu-Phe-Leu-Lys-Gln-Ala-Trp-Phe-Ile-Glu-Asn-Glu-Glu-Gln-Glu-Tyr-Val-Gln-Tyr-Val-Lys (Ac-AMVSEFLKQAWFIENEEQEYVQYVK) [Ac2-26, commercial annexin A1 N-terminal 25mer peptide, reference compound]
rod-shaped cardiomyocytes found ([6]; normal and hyperglycemic media, beyond day 14): no rod-shaped cardiomyocytes were found
